Assay results published in patent US20080200439A1, “Methods and compositions for modulating BK channel activity and vasodilation” (University of Tennessee Research Foundation, priority 2006, published 2008).

Legend:
[1] = tested on: pressurized resistance cerebral arteries; assay: Artery diameter measurement, pressurized rat middle cerebral arteries; conditions: 0.8 mM
Procedure: Artery Diameter Measurement. Middle cerebral arteries were isolated from adult male Sprague-Dawley rats (=250 g) or 8- to 12-week-old β1-knockout and C57BL/6 control mice. Rats and mice were decapitated using a guillotine and sharp scissors, respectively. These procedures were approved by the Institutional Animal Care and Use Committee from The University of Tennessee Health Science Center, an AMLAC-accredited institution. Pressurization of arteries was performed as described (Liu et al., 2004). Endothelium was removed by passing an air bubble into the vessel lumen for 90 sec. Diameter changes were monitored through an inverted microscope (Nikon Eclipse TS100, Nikon Corp., Tokyo, Japan), recorded on camera (Sanyo VCB-3512T, Sanyo Electric Corp., Japan), and transferred to a computer. Diameter data were acquired and analyzed using IonWizard 4.4 software (IonOptics Corp., Milton, Mass., United States of America).
Pressurized arteries were extraluminally perfused with physiological saline solution (PSS) (Liu et al., 2004) at a constant rate of 3.75 ml/min using a peristaltic pump Dynamax RP-1 (Rainin Instrument, Inc., Oakland, Calif., United States of America). At this rate, complete washout of the iberiotoxin (Ibtx) effect required >45 min. To keep basal tone under steady behavior, we shortened this period by increasing flow rate ˜3 times during washout of Ibtx, which sometimes evoked a flow-induced dilation (FIG. 1A). Equal volumes (25 ml) of vehicle- vs. LC-containing solutions were applied at equal, constant rate (see above) to the pressurized arterial segment in the chamber via a gravity system. Drugs were dissolved to make stock solutions (see Chemicals) and diluted in PSS to final concentration.
Chemicals. All chemicals were purchased from Sigma (St. Louis, Mo., United States of America), with the exception of 5β-cholanic acid 3α-ol (LC) (Steraloids, Inc., Newport, R.I., United States of America) and Ibtx (Alomone Labs Ltd., Jerusalem, Israel). On the day of the experiment, an LC stock solution (333 mM) in dimethyl sulfoxide (DMSO) was freshly prepared by sonication for 5 min. For arterial tone experiments, the LC stock was diluted 1/10 in DMSO and further diluted in PSS to render final LC concentration. Solution containing vehicle (0.1% DMSO; V/V) was used as control perfusion. For electrophysiological recordings, the LC stock solution was diluted 1/10 in 95% ethanol and further diluted with bath solution to render final LC concentration (3-1,000 μM). The DMSO/ethanol vehicle (≦0.1/≦0.86% final concentrations) in bath solution was used as control.
Data Analysis. Artery diameter response to each compound is shown as a percentage of the diameter obtained before compound application. Arterial diameter and electrophysiological data were analyzed with IonWizard 4.4 (IonOptics Corp., Milton, Mass., United States of America) and pCLAMP 8.0 (Molecular Devices, Union City, Calif., United States of America). Further analysis, plotting, and fitting were conducted using Origin 7.0 (Originlab Corp., Northampton, Mass., United States of America) and InStat 3.0 (GraphPad Software Inc., San Diego, Calif., United States of America).
After myogenic tone development at 60 mm Hg, intact arteries reached a diameter of 154.4±5.2 μm (n=17). Maximal contraction and dilation were checked by perfusing the vessel with 60 mM KCl at the beginning, and Ca^2+-free solution at the end of each experiment (FIGS. 1A & 1B). In all cases (n=17), application of 45 μM LC, that is, concentrations well below LC's critical micellar concentration (CMC) (≧1 mM under our recording conditions) (Roda et al., 1995) caused a significant increase in peak arterial diameter: +6% on top of a transient increase in diameter caused by vehicle-containing solution (FIGS. 1A-1C). […]

BK channels = conditions: cited from earlier work
cbv1+β1 channels = cbv1+β1 channels (UniProt Q16558+Q62976); assay: Patch-clamp of heteromeric cbv1+β1 channels expressed in Xenopus oocytes; type: cell-based, rat; conditions: 10 μM; bath application to extracellular surface of O/O patches
cbv1+β1 channels, sequence (Q62976 1-1148 isoform Q62976-2): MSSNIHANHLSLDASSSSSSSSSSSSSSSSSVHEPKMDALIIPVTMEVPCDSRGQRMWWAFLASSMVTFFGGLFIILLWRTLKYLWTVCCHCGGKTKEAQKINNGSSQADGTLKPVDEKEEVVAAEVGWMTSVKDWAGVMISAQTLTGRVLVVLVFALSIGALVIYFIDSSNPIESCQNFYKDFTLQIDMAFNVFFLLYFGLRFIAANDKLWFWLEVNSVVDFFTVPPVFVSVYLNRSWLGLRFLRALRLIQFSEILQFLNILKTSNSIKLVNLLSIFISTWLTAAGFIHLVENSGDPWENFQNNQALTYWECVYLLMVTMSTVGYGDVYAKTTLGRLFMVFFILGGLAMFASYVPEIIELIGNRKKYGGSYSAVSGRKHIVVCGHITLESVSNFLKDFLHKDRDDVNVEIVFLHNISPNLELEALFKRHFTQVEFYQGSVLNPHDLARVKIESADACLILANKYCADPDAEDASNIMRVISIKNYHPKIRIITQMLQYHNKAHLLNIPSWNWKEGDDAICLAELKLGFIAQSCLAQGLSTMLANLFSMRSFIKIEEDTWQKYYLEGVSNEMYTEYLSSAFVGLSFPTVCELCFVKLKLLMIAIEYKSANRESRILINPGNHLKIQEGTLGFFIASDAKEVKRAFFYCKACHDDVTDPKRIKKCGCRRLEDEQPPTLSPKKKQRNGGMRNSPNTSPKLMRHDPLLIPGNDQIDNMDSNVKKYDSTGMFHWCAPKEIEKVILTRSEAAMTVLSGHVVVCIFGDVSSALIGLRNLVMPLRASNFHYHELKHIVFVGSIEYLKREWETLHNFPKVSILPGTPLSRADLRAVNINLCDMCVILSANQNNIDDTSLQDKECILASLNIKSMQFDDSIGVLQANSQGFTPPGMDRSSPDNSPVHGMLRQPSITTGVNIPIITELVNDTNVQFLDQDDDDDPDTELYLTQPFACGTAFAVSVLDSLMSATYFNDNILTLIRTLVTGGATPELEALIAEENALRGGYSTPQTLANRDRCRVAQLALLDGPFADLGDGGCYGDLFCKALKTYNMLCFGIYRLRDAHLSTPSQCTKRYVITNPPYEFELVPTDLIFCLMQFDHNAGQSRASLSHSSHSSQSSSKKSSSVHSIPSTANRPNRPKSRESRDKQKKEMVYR
cbv1+β1 channels, sequence (Q16558 whole entry): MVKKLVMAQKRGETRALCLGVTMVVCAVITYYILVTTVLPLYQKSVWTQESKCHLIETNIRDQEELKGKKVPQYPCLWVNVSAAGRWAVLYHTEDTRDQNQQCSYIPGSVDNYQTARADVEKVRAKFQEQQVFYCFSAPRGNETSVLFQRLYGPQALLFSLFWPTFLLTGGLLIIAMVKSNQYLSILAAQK
Excerpt: cRNA Preparation and Injection into Xenopus Oocytes. Full-length cDNA coding for cbv1-subunits was cloned from rat cerebral artery myocytes by PCR and ligated to the PCR-XL-TOPO cloning vector (Invitrogen Corp., Carlsbad, Calif., United States of America) (Jaggar et al., 2005). cDNA coding for cbv1-subunits was cleaved from the cloning vector by BamHI (Invitrogen Corp., Carlsbad, Calif., United States of America) and XhoI (Promega, Madison, Wis., United States of America) and directly inserted into the pOX vector for expression in Xenopus oocytes. pOX-cbv1 was linearized with NotI (Promega, Madison, Wis., United States of America) and transcribed in vitro using T3 polymerase. Beta,-subunit cDNA inserted into the EcoR I/Sal I sites of the pCl-neo expression vector was linearized with NotI and transcribed in vitro using T7 polymerase. Beta4-subunit cDNA inserted into the pOx vector was linearized by NotI and transcribed using T3 polymerase. The mMessage-mMachine kit (Ambion Inc., Austin, Tex., United States of America) was used for transcription. The pOX vector and the cDNA coding for β1-subunits were generous gifts from Aguan Wei (Washington University, Saint Louis, Mo., United States of America) and Maria Garcia (Merck Research Laboratories, Whitehouse Station, N.J., United States of America).
Oocytes were removed from Xenopus laevis and prepared as described (Dopico et al., 1998). cRNA was dissolved in […] at 5 (cbv1) and 15 (β1 or β4) ng/μl; 1-μl aliquots were stored at −70° C. Cbv1 cRNA was injected alone (2.5 ng/μp) or coinjected with either β1 or β4 (7.5 ng/μl) cRNAs, giving molar ratios ≧6:1 (β:α). cRNA injection (23 nl/oocyte) was conducted using a modified micropipette (Drummond Scientific Co., Broomall, Pa., United States of America). The interval between injection and patch-clamp recordings was 48-72 h.
Electrophysiology. Oocytes were prepared for patch-clamp recordings as described (Dopico et al., 1998). Single-channel and macroscopic currents were recorded from inside-out (I/O) or outside-out (O/O) patches. For experiments with oocytes, both bath and electrode solutions contained (mM) 135 K^+ gluconate, 5 EGTA, 1 MgCl2, 15 HEPES, 10 glucose, pH 7.35. For experiments with myocytes, KCl substituted for K^+ gluconate. In all experiments, free Ca^2+ in solution was adjusted to the desired value by adding CaCl2. In most studies, free Ca^2+ in electrode solution=10 μM. In O/O studies with 17β-estradiol, however, free Ca^2+ in the electrode solution=0.3 μM. Nominal free Ca^2+ was calculated with MaxChelator Sliders (C. Patton, Stanford University, California, United States of America) and validated experimentally using Ca^2+-selective electrodes (Corning Incorporated Science Products Division, Corning, N.Y., United States of America).
Patch-recording electrodes were made as described (Dopico et al., 1998). Immediately before recording, the tip of each electrode was fire-polished on a microforge WPI MF-200 (World Precision Instruments, Inc., Sarasota, Fla., United States of America) to give resistances of 5-9 MD when filled with solution. An agar bridge with gluconate or Cl^− as the main anion (for oocyte and myocyte experiments, respectively) was used as ground electrode. After excision from the cell, the membrane patch was exposed to a stream of bath solution containing each agent at final concentration. Solutions were applied onto the patches using a pressurized system DAD12 (ALA Scientific Instruments, New York, N.Y., United States of America) via a micropipette tip with an internal diameter of 100 μm. Experiments were carried out at room temperature (21° C.).
Currents were recorded using an EPC8 amplifier (HEKA Electronics, Lambrecht/Pfalz, Germany) at 1 kHz using a low-pass, eight-pole Bessel filter 902LPF (Frequency Devices, Haverhill, Mass., United States of America). […]

## Nc1ccncc1 [4-AP, 4-aminopyridine, reference compound]
[1]
  Decrease in diameter: −9.7±2.3%

## C[C@]12CC[C@@H]3c4ccc(O)cc4CC[C@H]3[C@@H]1CC[C@@H]2O [17β-estradiol]
BK channels; Korovkina et al., 2004
  Concentrations modulating BK activity through the channel α-subunit: 0.01 to 1 µM
BK channels; Valverde et al., 1999
  Concentrations increasing BK (hslo) channel activity by interacting with the β1-subunit: 1 to 30 µM
cbv1+β1 channels
  Effect on channel activity: channel activation

## CC/C(=C(\c1ccccc1)c1ccc(OCCN(C)C)cc1)c1ccccc1 [tamoxifen, Tamoxifen]
BK channels; Duncan, 2005
  Concentrations decreasing unitary current amplitude (as low as): 1 to 10 µM
